Nine compounds from patent publication US8507684B2, “1-cyclopropyl-8-methyl-7-[5-methyl-6-(methylamino)-3-pyridinyl]-4-oxo-1,4-dihydro-3-quinolinecarboxylic acid salts” (Ferrer Internacional S.A., priority 2010, dated 2013) can be followed below.

The nature of this data set: Aqueous solubility of the salts determined by HPLC. It counts as physicochemical. Conditions: for pH: pH of Table 2 for the aqueous solubility samples (water, 2 h at 20° C.); for solubility at 2 h: thermodynamic from solid, read-out: Solubility in H2O. How it is done:
To determine the aqueous solubility of the salts, suspensions of the salts were shaken 2 h at 20° C. and 400 rpm. Afterwards the mixtures were filtered (0.1 μm centrifuge filter) and the concentrations were determined by HPLC.

Setting [1] is: suspension in water shaken 2 h at 20° C. and 400 rpm, filtered (0.1 μm), concentration by HPLC.

Regarding “1-Cyclopropyl-8-methyl-7-[5-methyl-6-(methylamino)-3-pyridinyl]-4-oxo-1,4-dihydro-3-quinolinecarboxylic acid hemi-fumarate salt”, the pH is given as 4.8. Further, the “Solubility in H2O” value under setting [1] was 89.7 µg/mL.
Broadly, the solubility is the concentration that dissolves in the medium under given conditions. Take `CNc1ncc(-c2ccc3c(=O)c(C(=O)O)cn(C4CC4)c3c2C)cc1C.O=C(O)CC(O)(CC(=O)O)C(=O)O` [Citrate, 1-Cyclopropyl-8-methyl-7-[5-methyl-6-(methylamino)-3-pyridinyl]-4-oxo-1,4-dihydro-3-quinolinecarboxylic acid citrate salt]: the pH turned out to be 2.7. For the same compound, under setting [1], the solubility at 2 h came to 5220 µg/mL.
In the case of `CNc1ncc(-c2ccc3c(=O)c(C(=O)O)cn(C4CC4)c3c2C)cc1C` [Free drug, 1-Cyclopropyl-8-methyl-7-[5-methyl-6-(methylamino)-3-pyridinyl]-4-oxo-1,4-dihydro-3-quinolinecarboxylic acid], the pH was 8.5. For the same compound, the “solubility in water (in words)” value (general statement, no conditions given) is listed as “low solubility in water”. Under setting [1], the solubility at 2 h was 19 µg/mL.
For the compound `CNc1ncc(-c2ccc3c(=O)c(C(=O)O)cn(C4CC4)c3c2C)cc1C.Cl.O` [Hydrochloride monohydrate, 1-Cyclopropyl-8-methyl-7-[5-methyl-6-(methylamino)-3-pyridinyl]-4-oxo-1,4-dihydro-3-quinolinecarboxylic acid hydrochloride monohydrate salt], the pH was 2.8. In addition, the solubility at 2 h under setting [1] is 2000 µg/mL.
Consider `CNc1ncc(-c2ccc3c(=O)c(C(=O)O)cn(C4CC4)c3c2C)cc1C.O=C(O)C(O)C(O)C(=O)O` [L-Tartrate, 1-Cyclopropyl-8-methyl-7-[5-methyl-6-(methylamino)-3-pyridinyl]-4-oxo-1,4-dihydro-3-quinolinecarboxylic acid L-tartrate salt], for which the pH was 2.5. In addition, under setting [1], the solubility at 2 h is 4600 µg/mL.
On the same counts, the results for `CNc1ncc(-c2ccc3c(=O)c(C(=O)O)cn(C4CC4)c3c2C)cc1C.O=C(O)/C=C\C(=O)O` [Maleate, 1-Cyclopropyl-8-methyl-7-[5-methyl-6-(methylamino)-3-pyridinyl]-4-oxo-1,4-dihydro-3-quinolinecarboxylic acid maleate salt] are 5.3 and 149 µg/mL.
On the same counts, the results for `CNc1ncc(-c2ccc3c(=O)c(C(=O)O)cn(C4CC4)c3c2C)cc1C.CS(=O)(=O)O` [Mesylate, 1-Cyclopropyl-8-methyl-7-[5-methyl-6-(methylamino)-3-pyridinyl]-4-oxo-1,4-dihydro-3-quinolinecarboxylic acid mesylate salt] are 2.4 and 113000 µg/mL.
On the same counts, the results for `CNc1ncc(-c2ccc3c(=O)c(C(=O)[O-])cn(C4CC4)c3c2C)cc1C.[K+]` [Potassium, 1-Cyclopropyl-8-methyl-7-[5-methyl-6-(methylamino)-3-pyridinyl]-4-oxo-1,4-dihydro-3-quinolinecarboxylic acid potassium salt] are 9.8 and 109000 µg/mL.
With `CNc1ncc(-c2ccc3c(=O)c(C(=O)[O-])cn(C4CC4)c3c2C)cc1C.[Na+]` [Sodium, 1-Cyclopropyl-8-methyl-7-[5-methyl-6-(methylamino)-3-pyridinyl]-4-oxo-1,4-dihydro-3-quinolinecarboxylic acid sodium salt], the pH was 9.0. Moreover, the solubility at 2 h under setting [1] is 159000 µg/mL.
